The results in this text go back to patent US12721894B2, “Method and system for applying pulsed electric fields with high uniformity using charged ring structures” (The Phantom Laboratory, Incorporated, priority 2020, dated 2026).

The test system of assay [1] is voltage gated sodium channel (VGSC). Kind of assay: Immunohistochemical labeling of VGSC in 4T1 homografts. Format: in vivo, mouse. To be noted: 1 and 2 days after treating with paclitaxel; FIG. 8. The source says:
FIGS. 5A-5C depict the immunohistochemical labeling of voltage gated sodium channel (VGSC) in 4T1 homografts before (FIG. 5A) and after (FIG. 5B) a single 2-day treatment with TOL. Nuclei are counterstained with DRAQ5™ fluorescent probe. […] Low power calibration bar in FIG. 5B is 50 μm and the high power calibration bar in the inset is 25 μm. […] This observation may explain, in part the loss of TOL's efficacy that is observed after the first 2 days of treatment.
FIGS. 8A-8D depicts the immunohistochemical labeling of VGSC in 4T1 homografts before (FIG. 8A), 1 (FIG. 8B) and 2 days (FIG. 8C) after treating with paclitaxel. Nuclei are counterstained with DRAQ5. […] Low power calibration bar in FIG. 8B is 50 μm and the high power calibration bar in the inset in FIG. 8C is 25 μm. […] It is noted that there is a progressive reduction of VGSC labeling but not in the number of cells that express the highest levels of VGSC. […] The decrease in expression of VGSC is likely to contribute in the reduced efficacy of TOL when used concurrently with paclitaxel.

For assay [2], the system named is 4T1 murine breast cancer cells. Kind of assay: Ectopic 4T1 homografts in BALBc mice: tumor size and survival after TOL. Format: in vivo, mouse. Conditions: paclitaxel 20 mg/kg i.p. post-inoculation day 5; TOL: digoxin 3 mg/kg x8 + 4x30 min PEF 18 V/m on 2 successive days; n=12; FIG. 7. How it is done:
FIG. 4 illustrates the average size of 4T1 homographs seen before and after each single treatment with TOL in which the duration of each of four exposures to PEFs of 18 V/m varied from 5-60 minutes (n=15). […] Further increase in stimulation duration had less of an effect on tumor reduction. Optimum tumor reduction is observed when the mice are exposed to a PEF for 30 minutes, or a range of exceeding 15 minutes and less than 60 minutes.
FIG. 6 depicts in vivo validation of the therapeutic efficacy of pulsed electric fields (PEFs) inducing osmotic lysis in a breast cancer mouse model. Ectopic homografts of 4T1 murine breast cancer cells were established in female, immune competent BALBc mice (n=12). The “TOL” group was injected with digoxin (7 mg/kg) and then exposed to the PEFs generated by a ring device. […] Tumor size was measured daily, beginning on Day 0 (first day of treatment) and every other day after Day 3 until NIH humane endpoint criteria were met for euthanasia.
FIG. 7 depicts in vivo validation of the therapeutic efficacy of pulsed electric fields (PEFs) inducing osmotic lysis in comparison to paclitaxel in a breast cancer mouse model. […] Homografts were measured on post-inoculation day 6 (treatment day 0), and again on post-treatment days 1 and 2 and then every other day until the criteria for humane endpoint euthanasia was met. […]

`CC(=O)O[C@H]1C(=O)[C@@]2(C)[C@H]([C@H](OC(=O)c3ccccc3)[C@]3(O)C[C@H](OC(=O)[C@H](O)[C@@H](NC(=O)c4ccccc4)c4ccccc4)C(C)=C1C3(C)C)[C@]1(OC(C)=O)CO[C@@H]1C[C@@H]2O` [paclitaxel]: the VGSC expression result in assay [1] was “decreases significantly and progressively”. Besides, the “time from inoculation to humane endpoint euthanasia (survival)” value in assay [2] is “no significant effect on survival over controls”.
